Experimental findings from patent US9006257B2, “Bicyclic compounds as mPGES-1 inhibitors” (Glenmark Pharmaceuticals S.A., priority 2012, dated 2015) are described below.

This assay has as its target T1, Recombinant human mPGES-1 (Homo sapiens, UniProt O14684).
T1 construct: made in house; host or cells: CHO cells
T1 sequence (O14684 1-152): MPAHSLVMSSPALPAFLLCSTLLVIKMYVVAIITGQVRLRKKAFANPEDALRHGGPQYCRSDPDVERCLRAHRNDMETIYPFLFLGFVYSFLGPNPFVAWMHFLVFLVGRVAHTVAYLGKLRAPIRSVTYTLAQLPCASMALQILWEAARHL
The assay is described as follows: In-vitro mPGES-1 inhibitor screening (inhibition of PGE2 formation from PGH2, HTRF detection). It counts as biochemical. Conditions: for inhibition at 1 µM: 1 μM test compound, read-out: Percentage inhibition at 1 μM; for inhibition at 1 µM / inhibition at 10 µM: crude microsomal fraction, 15 μM PGH2; for inhibition at 10 µM: 10 μM test compound, read-out: Percentage inhibition at 10 μM; for IC50: class symbol, concentration response curve. The procedure, abridged:
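Recombinant human mPGES-1 from CHO microsomes (40-60 μg/mL protein) preincubated 10 min with compound in 0.1 M potassium phosphate, 2 mM EDTA, 2.5 mM GSH, 0.5% DMSO; 15 μM PGH2 reacted 1 min, stopped with stannous chloride. PGE2 by HTRF; IC50 by nonlinear regression of % inhibition.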
Background: In TR-FRET formats the signal depends on donor and acceptor labels being close together.

One may read the inhibition as the change of the read-out against control, counted positive when it falls. The IC50 is the concentration at which inhibition is half-maximal. On to `CC(C)(C)C(=O)NCc1ccc(Cl)c(C(=O)Nc2cccc3c(Nc4cccc(C(F)(F)F)c4)ncnc23)c1` [Example-13, 2-Chloro-5-(pivalamidomethyl)-N-(4-((3-(trifluoromethyl)phenyl)amino)quinazolin-8-yl)benzamide], for which the inhibition at 1 µM worked out at 90.2%, the inhibition at 10 µM came out at 92.2% and the IC50 was below 0.05 µM.
For `CC(C)(C)C(=O)NCc1ccc(Cl)c(C(=O)Nc2cccc3c(Nc4cccc(C(F)(F)F)c4)nccc23)n1` [Example-2, 3-Chloro-6-(pivalamidomethyl)-N-(1-((3-(trifluoromethyl)phenyl)amino)isoquinolin-5-yl)picolinamide], the inhibition at 1 µM was 95.8%, the inhibition at 10 µM came to 97.2% and the IC50 is below 0.05 µM.
On the same counts, the results for `COc1c(CNC(=O)C(C)(C)C)ccc(Cl)c1C(=O)Nc1cccc2c(Oc3cccc(C(F)(F)F)c3)ncnc12` [Example-49, 6-Chloro-2-methoxy-3-(pivalamidomethyl)-N-(4-(3-(trifluoromethyl)phenoxy)quinazolin-8-yl)benzamide] are 91.9%, 91% and below 0.05 µM.
Turning to `Cc1nc(NC(C)(C)C)c2cccc(NC(=O)c3c(Cl)ccc(CNC(=O)C(C)(C)C)c3F)c2n1` [Example-65, N-(4-(tert-Butylamino)-2-methylquinazolin-8-yl)-6-chloro-2-fluoro-3-(pivalamidomethyl)benzamide], the inhibition at 1 µM is 94%, the inhibition at 10 µM is 93% and the IC50 was below 0.05 µM.
On to `CC(C)(C)C(=O)NCc1ccc(Cl)c(C(=O)Nc2cccc3c(Nc4ccc(C(F)(F)F)cc4F)nccc23)c1` [Example-44, 2-Chloro-N-(1-((2-fluoro-4-(trifluoromethyl)phenyl)amino)isoquinolin-5-yl)-5-(pivalamidomethyl)benzamide], for which the inhibition at 1 µM came out at 100%, the inhibition at 10 µM is 100% and the IC50 is below 0.05 µM.
Consider `CC(C)(C)C(=O)NCc1ccc(Cl)c(C(=O)Nc2cccc3c(Oc4cc(C(F)(F)F)ccc4F)ncnc23)c1F` [Example-28, 6-Chloro-2-fluoro-N-(4-(2-fluoro-5-(trifluoromethyl)phenoxy)quinazolin-8-yl)-3-(pivalamidomethyl)benzamide], for which the inhibition at 1 µM was 99.1%, the inhibition at 10 µM is 100% and the IC50 is below 0.05 µM.
Consider `Cc1nc(NC2CCC(C)(C)CC2)c2cccc(NC(=O)c3c(Cl)ccc(CNC(=O)C(C)(C)C)c3F)c2n1` [Example-54, 6-Chloro-N-(4-((4,4-dimethylcyclohexyl)amino)-2-methylquinazolin-8-yl)-2-fluoro-3-(pivalamidomethyl)benzamide], for which the inhibition at 1 µM stood at 98.2%, the inhibition at 10 µM turned out to be 97.3% and the IC50 is below 0.05 µM.
On the same counts, the results for `CC(C)(C)C(=O)NCc1ccc(Cl)c(C(=O)Nc2cccc3c(O[C@H]4CC[C@H](C(F)(F)F)CC4)nccc23)c1` [Example-38, 2-Chloro-5-(pivalamidomethyl)-N-(1-(((1r,4r)-4-(trifluoromethyl)cyclohexyl)oxy)isoquinolin-5-yl)benzamide] are 99.3%, 99.9% and below 0.05 µM.
